How the values were obtained:
U87MG cells = assay: Cytotoxicity assay (cell viability, CellTiter 96 Aqueous MTS); format: cell-based; conditions: Homo sapiens, U-87 MG, 72 h, 72 hours incubation, starting concentration 50 uM, 9 point half log dilution, average where tested repeatedly
Method in brief: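 U87MG cells plated at 7×10^3 cells/well overnight, then treated 72 h with 9-point half-log dilutions from a 50 uM starting concentration. Viability measured with CellTiter 96 Aqueous MTS; IC50 calculated from viability.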

tubulin = assay: Tubulin polymerization assay (Cytoskeleton, Inc. inhibitor screening protocol); format: biochemical; conditions: 3 μM, 37C, compared to DMSO control
Protocol: Example 4. Tubulin Polymerization Assay
Compounds described herein were tested in a tubulin polymerization inhibition assay using the general manufacturer's protocol for inhibitor screening (Cytoskeleton, Inc. BK01 IP). DMSO was used as a negative control, and vinblastine was tested as a positive control. All compounds were tested at a concentration of 3 μM, and incubation was carried out at 37C for 60 minutes. Results were calculated as a percent inhibition (compared to DMSO control) after 60 min of incubation, the results of which are shown in Table 3.

COc1ccc(CC(=O)NCCCc2ccc(-c3ccccc3F)cc2)cc1 [Compound 101, N-(3-(2′-fluoro-[1,1′-biphenyl]-4-yl)propyl)-2-(4-methoxyphenyl)acetamide]
IC50 (U87MG cells): < 500 nM | % Tubulin Polymerization at 60 min (tubulin): C (C is 41-60%)

O=C(NCCCc1ccc(-c2ccccc2F)cc1)c1ccc2[nH]cnc2c1 [Compound 136, N-(3-(2′-fluoro-[1,1′-biphenyl]-4-yl)propyl)-1H-benzo[d]imidazole-5-carboxamide]
IC50 (U87MG cells): < 500 nM | % Tubulin Polymerization at 60 min (tubulin): A (A is < 20%)

Cc1ncc(C(=O)NCCCc2ccc(-c3ccccc3F)cc2)s1 [Compound 138, N-(3-(2′-fluoro-[1,1′-biphenyl]-4-yl)propyl)-2-methylthiazole-5-carboxamide]
IC50 (U87MG cells): < 500 nM | % Tubulin Polymerization at 60 min (tubulin): A (A is < 20%)

O=C(CCCc1ccc(-c2ccc3[nH]c(=O)ccc3c2)cc1)Nc1cccnc1 [Compound 207, 4-(4-(2-oxo-1,2-dihydroquinolin-6-yl)phenyl)-N-(pyridin-3-yl)butanamide]
IC50 (U87MG cells): < 500 nM | % Tubulin Polymerization at 60 min (tubulin): D (D is 61-80%)

O=C(CCCc1ccc(-c2ccc3cnccc3c2)cc1)Nc1cccnc1 [Compound 214, 4-(4-(isoquinolin-6-yl)phenyl)-N-(pyridin-3-yl)butanamide]
IC50 (U87MG cells): < 500 nM | % Tubulin Polymerization at 60 min (tubulin): F (F is 81-100%)

Cc1ccc(C(=O)NCCCc2ccc(-c3ccc4c(cnn4C)c3)cc2)cn1 [Compound 226, 6-methyl-N-(3-(4-(1-methyl-1H-indazol-5-yl)phenyl)propyl)nicotinamide]
IC50 (U87MG cells): < 500 nM | % Tubulin Polymerization at 60 min (tubulin): C (C is 41-60%)

Cc1cc(C(=O)NCCCc2ccc(-c3ccc4[nH]ncc4c3C)cc2)no1 [Compound 230, 5-methyl-N-(3-(4-(4-methyl-1H-indazol-5-yl)phenyl)propyl)isoxazole-3-carboxamide]
IC50 (U87MG cells): < 500 nM | % Tubulin Polymerization at 60 min (tubulin): C (C is 41-60%)

Cn1ncc2cc(-c3ccc(CCCNC(=O)c4cnc(N)nc4)cc3)ccc21 [Compound 232, 2-amino-N-(3-(4-(1-methyl-1H-indazol-5-yl)phenyl)propyl)pyrimidine-5-carboxamide]
IC50 (U87MG cells): < 500 nM | % Tubulin Polymerization at 60 min (tubulin): C (C is 41-60%)

Cc1cc(C(=O)NCCCc2ccc(-c3cnc4[nH]ccc4c3)cc2)n(C)n1 [Compound 233, N-(3-(4-(1H-pyrrolo[2,3-b]pyridin-5-yl)phenyl)propyl)-1,3-dimethyl-1H-pyrazole-5-carboxamide]
IC50 (U87MG cells): < 500 nM | % Tubulin Polymerization at 60 min (tubulin): A (A is < 20%)

Cc1cc(C(=O)NCCCc2ccc(-c3ccc4ncccc4c3)cc2)no1 [Compound 239, 5-methyl-N-(3-(4-(quinolin-6-yl)phenyl)propyl)isoxazole-3-carboxamide]
IC50 (U87MG cells): < 500 nM | % Tubulin Polymerization at 60 min (tubulin): C (C is 41-60%)

Cc1ccc(C(=O)NCCCc2ccc(-c3ccc4[nH]ncc4c3C)cc2)cn1 [Compound 243, 6-methyl-N-(3-(4-(4-methyl-1H-indazol-5-yl)phenyl)propyl)nicotinamide]
IC50 (U87MG cells): < 500 nM | % Tubulin Polymerization at 60 min (tubulin): A (A is < 20%)

O=C(Nc1ccc2[nH]ccc2c1)N1CCN(c2ccc(-c3ccccc3F)cc2)CC1 [Compound 280, 4-(2′-fluoro-[1,1′-biphenyl]-4-yl)-N-(1H-indol-5-yl)piperazine-1-carboxamide]
IC50 (U87MG cells): < 500 nM | % Tubulin Polymerization at 60 min (tubulin): F (F is 81-100%)

— patent publication US12247010B2, “Tubulin inhibitors” (LIN BIOSCIENCE PTY LTD., priority 2017, dated 2025)
